Test results reported in patent US9132203B2, “Complex and contrast agent for photoimaging using the same” (CANON KABUSHIKI KAISHA, priority 2010, dated 2015).

Experiments:
[1] = Stability: absorption spectrum with time in PBS or PBS containing albumin at 37° C.; format: physicochemical
Experimental: To evaluate stability of the gelatin-ICG complex 1, the gelatin-ICG complex 1 was allowed to stand in PBS (phosphate buffered saline) or in PBS containing albumin (40 mg/mL) at 37° C., and the absorption spectrum was measured with time.

[2] = system: cancer-bearing mouse having a cancer site in the left hindlimb; assay: In vivo kinetics by fluorescent imaging in cancer-bearing mouse; conditions: caudal vein dosing, ICG 0.5 mg/ml; FIG. 17A-C, 18A
Experimental: After the gelatin-ICG complex 1 was dosed from the caudal vein of a cancer-bearing mouse having a cancer site in the left hindlimb, images were taken over time with a fluorescent imaging apparatus (GE Healthcare), and in vivo kinetics of the gelatin-ICG complex 1 were evaluated.
Furthermore, as a comparative example, ICG alone at the same concentration (0.5 mg/ml) was intravenously dosed to a cancer-bearing mouse, and a similar evaluation was performed. Changes with time in the fluorescent imaging after dosing the gelatin-ICG complex 1 are illustrated in FIG. 17A. Changes with time after dosing ICG alone are illustrated in FIG. 17B. Changes with time in the fluorescence intensity in these cancer tissues are illustrated in FIG. 17C.
A gelatin-ICG complex 7 including a gelatin derivative 7 (DSPE 67% introduced) fluorescently labeled with Cy5.5 and ICG was prepared and dosed to a cancer-bearing mouse in the same manner as in Example 15 to evaluate in vivo kinetics of the gelatin derivative 7 itself. Changes with time in the fluorescent imaging are illustrated in FIG. 18A. Furthermore, ICG alone at the same concentration was dosed to a cancer-bearing mouse as a comparative example. Changes with time in the fluorescent imaging are illustrated in FIG. 18B.

[3] = Absorption spectrum / absorbance at 780 nm with a spectrophotometer; format: physicochemical; conditions: ICG 0.5 mg/mL, gelatin 40 mg/mL; FIG. 2, FIG. 5
Experimental: The absorption spectrum of the obtained gelatin-ICG complex 1 was measured with a spectrophotometer (Beckman Coulter, Inc.).
The absorption spectrum and the absorbance at 780 nm of the gelatin-ICG complex 1 are illustrated in FIGS. 2 and 3, respectively. The absorption spectrum and the absorbance at 780 nm of ICG are also illustrated in FIGS. 2 and 3, respectively, as a comparative example.
The gelatin-ICG complex 1, 3, 4, 5, or 6 (final concentration, 40 or 100 mg/mL) and an ICG solution (final concentration, 0.5 mg/mL) were mixed to obtain a gelatin-ICG complex.
The complexes and the mixtures were prepared at final concentrations of ICG and a gelatin of 0.5 mg/mL and 40 mg/mL, respectively.
An ICG solution (final concentration, 0.1 mg/mL) and a gelatin (weight-average molecular weight, 10,000; final concentration, 100 m g/mL) were mixed to obtain a mixture (gelatin-ICG mixture) of a gelatin and ICG. The absorption spectrum of the obtained gelatin-ICG mixture was measured with a spectrophotometer. The results are illustrated in FIG. 19.

Compound: CC1(C)C(/C=C/C=C/C=C/C=C2/N(CCCCS(=O)(=O)[O-])c3ccc4ccccc4c3C2(C)C)=[N+](CCCCS(=O)(=O)[O-])c2ccc3ccccc3c21.[Na+] [ICG, indocyanine green]
- changes with time in absorption spectrum / absorbance (λmax) ([1]; PBS containing albumin (40 mg/mL)): stability was slightly inferior as compared with the stability of the gelatin-ICG complex 1
- changes with time in absorption spectrum / absorbance (λmax) ([1]; PBS without albumin): changed greatly with time
- distribution of ICG to cancer tissue, fluorescence with time [2]: distributed to the cancer tissue temporarily after dosing ICG alone and eliminated with time
- absorption spectrum (associate around 700 nm, monomer around 780 nm) [3]: absorbance on the long wavelength side was low
